Assays:
[1] = not given; remark: listed apart in the source
[2] = not given; remark: listed apart in the source
FaDu cells [3] = test: Cell binding assay; assay type: cell-based; settings: OCTL14 20 min, cRGD-ZW800-PEG 30 min, Cy5 / Cy7 fluorescence imaging, n = 6
Method: To evaluate the cellular uptake of OCTL14 and cRGD-ZW800-PEG in HNSCC cells, a cell binding assay was done using FaDu cells (HTB-43), purchased from the American Type Culture Collection (Manassas, VA, USA). The cells were first cultured in complete Dulbecco’s modified Eagle’s medium (cDMEM) supplemented with 4.5 g/l glucose, L-glutamine and sodium pyruvate, 10% FBS, and 1% penicillin/streptomycin (Lonza, DE17-602E) at 37 °C in a 5% CO2 humidified chamber. Then, cells were seeded in a 24-well plate at a density of 20,000 cells/well and incubated for 24 h. After discarding old medium and washing twice with Hanks’ balanced salt solution (HBSS), the cells were incubated with OCTL14 for 20 min and with cRGD-ZW800-PEG for 30 min, respectively. The wells were washed 3 times with HBSS before fluorescence images were captured using Cy5 and Cy7 filters on Cytation 5 for OCTL14 and cRGD-ZW800-PEG, respectively.

[4] = Cell viability assay (CCK-8); assay type: cell-based
Method: (§1) To evaluate the toxicity of OCTL14 and cRGD-ZW800-PEG on FaDu cells, cell viability was measured by using the Cell Counting Kit-8 (CCK-8, Dojindo Molecular Technologies Inc., Kumamoto, Japan). FaDu cells were seeded at a density of 400 cells/well in a 96-well plate, and then they were then treated with either 2, 5, 10, and 20 μM OCTL14 or 1.6, 3.1, 6.3, 12.5, 25, 50, and 100 μM cRGD-ZW800-PEG in growth medium for 24 h at 37 °C. Then, the dye and old medium were removed from all wells, and new medium were added and incubated for 24 h before 10 μl of CCK-8 solution was added to each well. After 3 h of incubation for OCTL14 and 4 h of incubation for cRGD-ZW800-PEG, absorbance was measured at 450 nm using a microplate reader. The cell survival rate for each dye was calculated using the following equation: Survival rate (%) = (Asample − Ab)/(Ac − Ab) × 100 (Asample, absorbance of sample; Ab, absorbance of blank well; Ac, absorbance of negative control). Experiments were repeated at least 3 times.

[5] = test system: FaDu tongue cancer xenograft; test: Intraoperative fluorescence imaging of orthotopic and ectopic FaDu tumors (TBR, histology); assay type: in vivo, mice; settings: for Tumor-to-background ratio (TBR): FaDu tongue cancer xenograft, intravenous, within 4 h post-injection, OCTL14 cancerous tissue, cRGD-ZW800-PEG surrounding TME; for Localisation by histopathologic analysis: orthotopic FaDu tongue tumor, 4 h after intravenous injection, frozen sections, NIR and H&E
Method: To evaluate the targetability of OCTL14 and cRGD-ZW800-PEG on the orthotopic xenograft model of tongue cancer, 0.5 × 10^6 of FaDu cells in a 30-μl mixture of saline and Matrigel (1:2 ratio) were injected subepithelially into the tip of the tongue using an insulin syringe. When the size of the tongue tumor reached 2 mm, dual fluorescence imaging was performed by injecting cRGD-ZW800-PEG and OCTL14 intravenously 4 h prior to imaging. For the ectopic xenograft model of HNSCC, 0.5 × 10^6 of FaDu cells in a 50-μl mixture of saline and Matrigel (1:2 ratio) were injected subcutaneously on the lower back of the mouse. When the size of the ectopic tumor reached 3 mm, in vivo evaluation of the targetability of the 2 NIR fluorophores was performed. All the animal surgeries were performed under anesthesia with isoflurane.
The real-time fluorescence intensity of OCTL14 and cRGD-ZW800-PEG at the orthotopic and ectopic tumors was compared with the surrounding nontumor region (background signal) to evaluate the TBR. After intraoperative imaging, the fluorescence intensity of the tumor tissue was acquired using ImageJ software and divided by the fluorescence intensity of the surrounding tissue to calculate TBR for both OCTL14 and cRGD-ZW800-PEG. Quantitative time-course assessment of both orthotopic and ectopic tongue cancer was performed for both OCTL14 and cRGD-ZW800-PEG at 1, 4, 6, and 24 h post-intravenous injection. At least 3 head and neck tumor models were evaluated for the quantitative analysis of TBR.
Tumor and TME targetability of OCTL14 and cRGD-ZW800-PEG were confirmed by histology analysis on the orthotopic HNSCC xenograft model. The tumor-bearing tongue was excised from the mouse after in vivo imaging of the tumors at 4 h after intravenous injection of the 2 fluorophores, and embedded in Tissue-Tek optimal cutting temperature compound (Sakura Finetek, Torrance, CA, USA). Frozen sections were acquired and placed on slides with a cut thickness of 10 μm using a cryostat (Leica, Germany). Fluorescence images were taken for both OCTL14 and cRGD-ZW800-PEG using Cy5 filter and Cy7 filter on Cytation 5, respectively. After dual fluorescence imaging, the tissue sections were stained with hematoxylin and eosin (H&E), and bright-field images of the orthotopic tongue cancer were acquired using Cytation 5.

FaDu cells [6] = test: Cell viability assay (CCK-8); assay type: cell-based; settings: FaDu cells
Method: as §1

FaDu cells [7] = test: Cellular uptake inhibition assay; assay type: cell-based; settings: n = 6
Method: To reveal the uptake mechanism of OCTL14 on FaDu cells, a cellular uptake inhibition assay was performed using bromsulphthalein (BSP) (Sigma-Aldrich, St. Louis, MO, USA) and corticosteroid (Sigma-Aldrich). First, the 15,000 cells were plated per well on a 24-well plate. After incubation for 48 h at 37 °C, cells were washed twice with 0.5 ml of HBSS. Then, the cells were pretreated with 250 μM BSP for 5 min or 25 μM corticosteroid for 5 min, before they were incubated with 2 μM OCTL14 for 15 min at 37 °C. To rule out the possible diffusion of OCTL14 across the plasma membrane, FaDu cells were incubated with 2 μM OCTL14 at 4 °C for 15 min. Serum-free medium was added to the control group without any inhibitors. After washing, images were acquired by Cytation 5 using a Cy5 filter. ImageJ software version 1.52p was used to measure the fluorescent intensity of FaDu cells at each condition.

[8] = Photostability under NIR irradiation; settings: under 630-nm NIR light; 25 μM in 10% FBS; up to 3 h
[9] = Biodistribution and clearance, K-FLARE NIR imaging; settings: tumor-bearing nude mice; 100 nmol intravenous; 4 h post-injection; SBR relative to muscle
[10] = Serum protein binding assay, rapid equilibrium dialysis; settings: rapid equilibrium dialysis device; 5 μM; 10% fetal bovine serum; 8 h incubation; absorbance read-out of sample and buffer chamber (Cytation 5)

Photostability: remaining initial absorbance [8] | Plasma protein binding, 8 h (%Bound) [10] | SMILES | absorbance maximum | quantum yield (QY) [1] | fluorescence maximum [2] | Uptake in FaDu cells (cell binding assay) (FaDu cells [3]) | IC50 [4] | Tumor-to-background ratio (TBR) [5] | Localisation by histopathologic analysis [5] | IC50 (FaDu cells [6]; 24 h treatment at 37 °C, then 24 h in new medium, absorbance 450 nm, n = 5, read-out: IC50 (cytotoxicity, CCK-8)) | Concentration up to which little toxicity was shown (FaDu cells [6]; CCK-8 assay, 24 h treatment) | Uptake in cold inhibition test (FaDu cells [7]; 2 μM OCTL14 at 4 °C) | Effect of corticosteroid (OCT inhibitor) on uptake of OCTL14 (FaDu cells [7]; 25 μM corticosteroid pretreatment 5 min, 2 μM OCTL14, 15 min, 37 °C, compared to control) | Effect of BSP (OATP inhibitor) on uptake of OCTL14 (FaDu cells [7]; 250 μM BSP pretreatment 5 min, 2 μM OCTL14, 15 min, 37 °C) | Biodistribution (SBR of resected organs) [9]
 |  | CC1(C)C(=CC=C2CCCC(C=CC3=[N+](CCC[N+](C)(C)C)c4ccc(S(=O)(=O)O)cc4C3(C)C)=C2SCCOCCOCCC(=O)NCCCC[C@@H]2NC(=O)[C@@H](Cc3ccc(O)cc3)NC(=O)[C@H](CC(=O)O)NC(=O)CNC(=O)[C@H](CCCNC(=N)N)NC2=O)N(CCC[N+](C)(C)C)c2ccc(S(=O)(=O)O)cc21 [cRGD-ZW800-PEG] | 784 nm | 8.52% | 809 nm | limited uptake | 45.8 µM | > 1.5 | peritumoral tissue was the primary target |  |  |  |  |  | 
over 90% | 4.46% | Br.C[N+]1=C(/C=C2\C(=O)C(/C=C3/N(CCC[N+](C)(C)C)c4ccc(F)cc4C3(C)C)=C2[O-])C(C)(C)c2ccccc21.[I-] [OCTL14] |  |  |  | significantly high target affinity |  | > 2.0 | effectively imaged the tumor cell itself | 42.1 µM | ≤ 20 µM | Negative uptake | significantly reduced the uptake | little impact | high SBR in the kidney, gallbladder, and intestine

Reference: publication PMC12636036, “Precise Detection of Surgical Margin in Head and Neck Cancer Using Dual Near-Infrared Imaging of the Tumor and Tumor Microenvironment” (Biomaterials Research, 2025)
